Measured values reported in publication PMC7780120, “Modulators of histone demethylase JMJD1C selectively target leukemic stem cells” (FEBS Open Bio, 2020).
pKd: −log10 of the molar value.

Target: T1, JMJD1C (partial, 2274-2498aa) (Homo sapiens, UniProt Q15652)
T1 construct: immobilised on CM7 chip
T1 sequence (Q15652 2274-2498): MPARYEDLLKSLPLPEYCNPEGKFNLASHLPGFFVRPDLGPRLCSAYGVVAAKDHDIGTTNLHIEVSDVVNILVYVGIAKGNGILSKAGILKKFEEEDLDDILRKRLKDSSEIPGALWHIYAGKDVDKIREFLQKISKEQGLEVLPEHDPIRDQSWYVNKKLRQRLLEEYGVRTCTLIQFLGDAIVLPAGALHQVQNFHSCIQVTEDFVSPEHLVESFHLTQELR
Assay: SPR, immobilised protein, […] Langmuir fit
Format: binding

- pKd: 3.59
Structure (SMILES): CN1CC(=O)N2[C@H](c3ccc4c(c3)OCO4)c3[nH]c4ccccc4c3C[C@@H]2C1=O [tadalafil]
